This is an account of results in publication PMC3238500 (Archives of biochemistry and biophysics, 2011).

The target of the experiment is pyruvate carboxylase R472S mutant (RePC) (Rhizobium etli, UniProt Q2K340, R472S). In kind it is biochemical.

Take `CC(=O)SCCNC(=O)CCNC(=O)[C@H](O)C(C)(C)COP(=O)(O)OP(=O)(O)OC[C@H]1O[C@@H](n2cnc3c(N)ncnc32)[C@H](O)[C@@H]1OP(=O)(O)O` [acetyl CoA]: the “Ka (activation constant)” value is listed as 1.65 ± 0.05 mM.
